Laboratory results reported in US12145947B2, “Pyrimidine based modulators and uses thereof” (Quanta Therapeutics, Inc., priority 2022, dated 2024).

Key:
[1] = biological target: T1, GST-tagged KRAS-G12D (2-169) (Homo sapiens, UniProt P01116, G12D); experiment: Nucleotide exchange assay (NEA), SOS-mediated, HTRF, KRAS G12D; format: biochemical; conditions: Table 4; IC50 extracted at 30 min
T1 construct: GST-tagged KRAS-G12D (2-169, Reaction Biology, MSC-11-539); purchased Reaction Biology MSC-11-539 (KRAS G12D); MSC-11-502 (SOS1cat)
T1 sequence (P01116 2-169 isoform P01116-2 G12D): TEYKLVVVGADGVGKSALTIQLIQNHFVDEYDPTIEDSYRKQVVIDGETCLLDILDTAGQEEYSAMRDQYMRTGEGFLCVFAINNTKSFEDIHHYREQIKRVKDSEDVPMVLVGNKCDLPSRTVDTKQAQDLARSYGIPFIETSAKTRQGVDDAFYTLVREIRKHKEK
From the text: This activity is tightly regulated by GTPase activating proteins (GAPs) and guanine nucleotide exchange factors (GEFs). GEFs, such as SOS1/2, activate Ras proteins by exchanging GDP for GTP, thus returning Ras to its active conformation (Simanshu, Nissley, & McCormick, 2017). […] Homogenous time resolved fluorescence (HTRF) was used to detect SOS-mediated binding of a fluorescent GTP analog, GTP-DY-647P1 (Jena Biosciences NU-820-647P1) to GST-tagged KRAS-G12D (2-169, Reaction Biology, MSC-11-539) or to GST-tagged KRAS-G12V (2-169, Reaction Biology, MSC-11-540).
GST-tagged KRAS-G12D (2-169) and anti-GST MAb Tb Cryptate Gold (CisBio 61GSTTLB) were diluted into assay buffer (20 mM HEPES, pH 7.3, 150 mM NaCl, 5 mM MgCl2, 0.05% BSA 0.0025% NP40, 1 mM DTT) to prepare a 2.5× donor solution. 5× compound was added to the protein mixture and incubated for 1 h at RT. 2.5× acceptor solution containing SOSIcat (564-1049, Reaction Biology MSC-11-502) and GTP-DY-647P1 were then added to the donor KRAS mixture such that the final concentration of the reaction contained 5 nM GST-tagged KRAS-G12D (2-169), 20 nM SOScat, and 150 nM GTP. The reaction was monitored using at RT with the Envision multimode plate reader (Ex/Em 337/665, […]) up to 90 minutes at 5 minute intervals. To monitor KRAS-G12V Sos-mediated nucleotide exchange, 80 nM SOS was added to reaction instead of 20 nM. All other components were the same as previously described. Data was blanked to reactions without SOS1 and % inhibition was calculated such that DMSO only=0% and blank=100%. Curve fitting was done using a 4 parameter fit. Reported IC50 values were extracted at 30 min and 90 min for the KRAS-G12D and KRAS-G12V assays, respectively.
Curve fitting was done using a 4 parameter fit. NEA KRAS G12D IC50 (uM) values of selected compounds are depicted in Table 2 with compounds having a value <0.01 uM as ++++; >0.01 uM to 0.1 uM as +++; >0.1 uM to 1 uM as ++; >1 uM to 20 uM as +; and >20 uM as NA.

KRAS G12D/RAF1 = biological target: T2, KRAS G12D/RAF1 (Homo sapiens, UniProt P01116, G12D); experiment: Protein-protein interaction (PPI) HTRF assay KRAS G12D/RAF1; format: binding; conditions: Table 4
T2 construct: His6-MBP (N, cleaved yes); made in house; host or cells: E. coli
T2 sequence (P01116 with tags, fused parts or gaps isoform P01116-2 G12D): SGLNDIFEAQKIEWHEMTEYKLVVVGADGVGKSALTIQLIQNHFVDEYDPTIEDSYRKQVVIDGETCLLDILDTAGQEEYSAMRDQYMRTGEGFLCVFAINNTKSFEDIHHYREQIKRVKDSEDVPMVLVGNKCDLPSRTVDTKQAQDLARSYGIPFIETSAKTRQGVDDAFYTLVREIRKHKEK
Protocol: Biotinylated KRAS wt and KRAS G12DNV proteins were expressed and purified in conditions similar to those previously reported (Tran, et al., 2021) (Zhang, et al., 2020). Briefly, KRAS (1-169) proteins were expressed in E. coli at 18° C. with an upstream TEV cleavage site (ENLFYQS (SEQ ID NO: 6)) followed an Avi tag sequence ([…] (SEQ ID NO: 7)). KRAS expression constructs contained both a His6 (SEQ ID NO: 8) and maltose-binding protein (MBP) tags at the N-terminus for Ni-NTA column purification prior to overnight TEV cleavage and MBP column purification. The avi-tagged NRAS expression construct contained both a His6 tag (SEQ ID NO: 8) and SUMO cleavage sige at the N-terminus for Ni-NTA column purification followed by His-ULPi digestion overnight. All avi-tagged RAS proteins were dialyzed into buffer containing ATP, biotin, and BirA followed by purification over a second Ni-NTA column and then run over a size exclusion HiLoad™ 26/600 Superdex™ column in 20 mM HEPES, pH 7.5, 300 mM NaCl, 5 mM MgCl2, and 1 mM TCEP. Fractions containing the protein of interest were pooled, concentrated, and confirmed by intact mass spectrometry. To prepare ‘GTP’ loaded KRAS and NRAS, biotinylated KRAS or NRAS was nucleotide exchanged from GDP-bound protein to GppNHp-bound (Jena Biosciences, NU-401-50) protein in the presence of alkaline phosphatase and excess GppNHp as previously described and the resulting nucleotide content was confirmed by HPLC reverse phase analytical chromatography (Donohue, et al., 2019) (Tran, et al., 2021).
His-tagged RAF1 (52-131) was similarly expressed in E. coli at 18° C. overnight with an upstream TEV cleavage site. His-tagged RAF1 expression construct contained both a His6 (SEQ ID NO: 8) and MBP tags at the N-terminus for Ni-NTA column purification followed by MBP-tagged TEV digestion overnight. RAF1 protein samples were further purified over a MBP column followed by a Ni-NTA column and a second MBP column. The fractions containing the protein of interest were pooled, concentrated, and further purified over a HiLoad™ 16/600 Superdex™ 75 pg size exclusion column into 20 mM HEPES, pH8.0, 200 mM NaCl, 5 mM TCEP.
When RAS proteins are in the active GTP-bound conformation, they bind the effector protein RAF1 at the N-terminus Ras-binding domain (RBD, residues 52-131) (Tran, et al., 2021). Homogenous time resolved fluorescence (HTRF) was used to monitor the interaction between wt or mutant KRAS and RAF1 or wt NRAS and RAFT. Compounds were assayed in the presence of KRAS G12D/V and RAF1 versus wt KRAS to assess activity against mutant and w.t. KRAS. Similarly, compounds were then assayed in the presence of w.t. NRAS and RAF1 to assess RAS isoform selectivity. In all assay formats, His-tagged RAF1 protein was incubated with the HTRF donor, anti-6His (“6His” disclosed as SEQ ID NO: 8) Tb Cryptate gold (Cisbio 61DB10RDF), and biotinylated RAS proteins were incubated with the HTRF acceptor, streptavidin-d2 (CisBio 610SADLA). The intensity of the fluorescence signal emitted is proportional to binding between the two proteins. The donor solution was prepared by mixing 16 nM His-tagged RAF1 in protein dilution buffer with 1:100 anti-6His (“6His” disclosed as SEQ ID NO: 8) Tb cryptate in PPI-Terbium detection buffer. 16 nM biotinylated RAS protein was diluted into protein dilution buffer (50 mM Tris-HCl pH 7.5, 150 mM NaCl, 0.1 mM MgCl2, 1 mM TCEP, 0.005% Tween20) and mixed with 1:2000 Streptavidin-d2 diluted in PPI-Terbium detection buffer (CisBio 61DBTORDF). 50× compound in DMSO was mixed with 16 nM KRAS-acceptor solution and incubated for 30 minutes at room temperature. After compound pre-incubation with KRAS, the RAF1 donor solution was added to the KRAS-acceptor solution and incubated for 1 hour at room temperature. The fluorescence signal emitted was monitored at 665 nm and 615 nm using an Envision multimode plate reader. […]

SMILES | IC50 [1] | IC50 (KRAS G12D/RAF1)
CN(C)C(=O)c1nn2c(c1Cl)CN(c1nc(OC[C@@]34CCCN3C[C@H](F)C4)nc(N3CC4(C3)C(=O)Cc3ccccc34)c1C#N)CCC2 [Compound 37, 3-chloro-5-[5-cyano-2-[[(2R,8S)-2-fluoro-1,2,3,5,6,7-hexahydropyrrolizin-8-yl]methoxy]-6-(2′-oxospiro[azetidine-3,1′-indane]-1-yl)pyrimidin-4-yl]-N,N-dimethyl-4,6,7,8-tetrahydropyrazolo[1,5-a][1,4]diazepine-2-carboxamide] | > 20 µM | > 100 µM
N#Cc1c(N2CCC(O)C(O)CC2)nc(OC[C@@]23CCCN2C[C@H](F)C3)nc1N1CC2(CCc3sc(N)c(C#N)c32)C1 (stereo partly drawn) [Compound 38, 2-amino-1′-[5-cyano-6-(4,5-dihydroxyazepan-1-yl)-2-[[(2R,8S)-2-fluoro-1,2,3,5,6,7-hexahydropyrrolizin-8-yl]methoxy]pyrimidin-4-yl]spiro[5,6-dihydrocyclopenta[b]thiophene-4,3′-azetidine]-3-carbonitrile] | 0.01 to 0.1 µM | 1 to 10 µM
N#Cc1c(N2C[C@H]3CC[C@@H](C2)N3)nc(OCC2(CN3CCOCC3)CC2)nc1N1CC2(CCc3sc4[nH]cnc(=O)c4c32)C1 [Compound 39, 2-[[1-(morpholinomethyl)cyclopropyl]methoxy]-4-(12-oxospiro[7-thia-9,11-diazatricyclo[6.4.0.02,6]dodeca-1(8), 2(6), 10-triene-3,3′-azetidine]-1′-yl)-6-[(1R,5S)-3,8-diazabicyclo[3.2.1]octan-3-yl]pyrimidine-5-carbonitrile] | 0.1 to 1 µM | > 100 µM
CN(C)C(=O)c1nn2c(c1Cl)CN(c1nc(OC[C@@]34CCCN3C[C@H](F)C4)nc(N3CC4(CCc5sc6[nH]cnc(=O)c6c54)C3)c1C#N)CCC2 [Compound 44, 3-chloro-5-[5-cyano-2-[[(2R,8S)-2-fluoro-1,2,3,5,6,7-hexahydropyrrolizin-8-yl]methoxy]-6-(12-oxospiro[7-thia-9,11-diazatricyclo[6.4.0.02,6]dodeca-1(8), 2(6), 10-triene-3,3′-azetidine]-1′-yl)pyrimidin-4-yl]-N,N-dimethyl-4,6,7,8-tetrahydropyrazolo[1,5-a][1,4]diazepine-2-carboxamide] | 1 to 20 µM | > 100 µM
N#Cc1c(N2C[C@H]3CC[C@@H](C2)N3)nc(OCC2(CN3CCOCC3)CC2)nc1N1CC2(C1)C(=O)CCc1ccccc12 [Compound 50, 4-[(1R,5S)-3,8-diazabicyclo[3.2.1]octan-3-yl]-2-[[1-(morpholinomethyl)cyclopropyl]methoxy]-6-(2′-oxospiro[azetidine-3,1′-tetralin]-1-yl)pyrimidine-5-carbonitrile] | 1 to 20 µM | > 100 µM
N#Cc1c(N)sc2c1C1(CC2)CN(c2nc(OC[C@@]34CCCN3C[C@H](F)C4)nc(N3CCCC(C#N)CC3)c2F)C1 (stereo partly drawn) [Compound 51, 2-amino-1′-[6-(4-cyanoazepan-1-yl)-5-fluoro-2-[[(2R,8S)-2-fluoro-1,2,3,5,6,7-hexahydropyrrolizin-8-yl]methoxy]pyrimidin-4-yl]spiro[5,6-dihydrocyclopenta[b]thiophene-4,3′-azetidine]-3-carbonitrile] | 0.01 to 0.1 µM | 1 to 10 µM
N#Cc1c(N2C[C@H]3CC[C@@H](C2)N3)nc(OCC2(CN3CCOCC3)CC2)nc1N1CC2(C1)c1ccccc1CCC2O (stereo partly drawn) [Compound 53, 4-[(1R,5S)-3,8-diazabicyclo[3.2.1]octan-3-yl]-6-(2′-hydroxyspiro[azetidine-3,1′-tetralin]-1-yl)-2-[[1-(morpholinomethyl)cyclopropyl]methoxy]pyrimidine-5-carbonitrile] | 0.1 to 1 µM | > 100 µM
N#CNC1CCCN(c2nc(OC[C@@]34CCCN3C[C@H](F)C4)nc(N3CC4(CCc5sc(N)c(C#N)c54)C3)c2F)C1 (stereo partly drawn) [Compound 54, [1-[6-(2-amino-3-cyano-spiro[5,6-dihydrocyclopenta[b]thiophene-4,3′-azetidine]-1′-yl)-5-fluoro-2-[[(2R,8S)-2-fluoro-1,2,3,5,6,7-hexahydropyrrolizin-8-yl]methoxy]pyrimidin-4-yl]-3-piperidyl]cyanamide] | 0.1 to 1 µM | 0.1 to 1 µM
